{
  "source": "paper PMC5929447",
  "about": "(Oncotarget, 2018)",
  "key": {"[1]": {"tested_on": "Burkitt lymphoma cell lines", "assay": "CellTiter-Glo viability, Burkitt lymphoma cell line panel", "format": "cell-based", "conditions": "72 h; all Burkitt lymphoma cell lines tested", "protocol": "Cells were seeded into 96-well plates and treated at 8 points with 1:2 serial dilution of compounds. Cell viability was assessed and assayed for viability using CellTiter-Glo reagent (Promega) following the manufacturer's instructions. Plates were read using Tecan luminescence plate reader. Results were normalized to the viability of cells without compounds (control wells). The IC50 values were calculated using nonlinear regression algorithms in XCell software."}, "[2]": {"tested_on": "caspase-3 activity in RS4;11 tumor xenografts", "assay": "Caspase-3 activity in RS4;11 tumor xenografts", "format": "in vivo", "conditions": "16 h post dosing, SCID mice", "protocol": "Body weights were recorded and tumors were measured with digital calipers twice to three times a week. Tumor volume was calculated using the formula: length × width^2/2. Percent changes in body weights was calculated as (BWcurrent - BWinitial)/(BWinitial) × 100. Data is presented as percent body weight change from the day of treatment initiation. When tumors reached approximately 200 mm^3 for efficacy studies or 300 mm^3 for pharmacodynamic studies, mice were randomized. […] Mice were treated via oral gavage at 10 ml/kg with the doses and schedules described in the figure. For pharmacodynamic studies, blood and tumors were removed 16 h post dosing and immediately snap-frozen. Total proteins were extracted from the tumors and caspase-3 activity was assessed in triplicate using CaspACE® Assay System (Promega). Platelet cell counts were determined 16 hours post dosing using Coulter AcT diff (Beckman)."}, "Toledo xenograft": {"tested_on": "Toledo xenograft", "assay": "Toledo xenograft efficacy", "format": "in vivo, mice", "conditions": "day 21; for Mean TV change: mean ± s.e.m.", "protocol": "Experiments were performed in SCID/beige female mice from Charles River Laboratories, Massachusetts, USA. Animals, approximately 7-8 weeks of age at the start of the treatment were allowed to acclimate in animal facility with access to food and water ad libitum for 3 days prior to manipulation. Animals were handled in accordance with IACUC regulations and guidelines for experiments performed in the USA and with European and French regulation for the protection of vertebrate animals for experiments performed in France. Animal well-being and behavior, including grooming and ambulation were monitored at least once a day. General health of mice was monitored and mortality recorded daily. Any moribund animals were sacrificed.\nRS4;11 Acute Lymphoblastic Leukemia cell lines was obtained from ATCC. Toledo (Diffuse Large B-Cell Lymphoma) human cell lines were obtained internally through Bioresources and the Novartis-Cancer Cell Line Encyclopedia. Cells were free of Mycoplasma and murine viral contamination in the IMPACT VIII PCR assay panel (IDEXX RADIL, IDEXX laboratories INC, Westbrook, ME, USA). Cells used for subcutaneous implantation were cultured in RPMI plus 10% FBS at 37° C in a humidified atmosphere containing 5% carbon dioxide). […] Cells were resuspended in a 1:1 mixture of cold DPBS (Dulbecco's Phosphate-Buffered Saline) and Matrigel™ (Becton-Dickinson #354234) at a concentration of 3 × 10^7 cells/ml for Toledo cells, and of 1 × 10^7 cells/ml for RS4;11 cells.\n(§1) For each experiment, female SCID/beige mice were implanted subcutaneously (right axillary region) with 3 × 10^6 Toledo or RS4;11 (1 × 10^6 cells for efficacy studies and 1 × 10^7 cells for pharmacodynamics studies) suspended in 1:1 mixture of cold DPBS and Matrigel™ in a total volume of 100 μl. Body weights were recorded and tumors were measured with digital calipers twice to three times a week. Tumor volume was calculated using the formula: length × width^2/2. Percent changes in body weights was calculated as (BWcurrent - BWinitial)/(BWinitial) × 100. Data is presented as percent body weight change from the day of treatment initiation.\nWhen tumors reached approximately 200 mm^3 for efficacy studies or 300 mm^3 for pharmacodynamic studies, mice were randomized. […] Mice were treated via oral gavage at 10 ml/kg with the doses and schedules described in the figure.\nFor efficacy studies, percent treatment/control (T/C) values were calculated using the following formula: %T/C = 100 × ΔT/ΔC if ΔT > 0. Regression = 100 × ΔT/Tinitial if ΔT < 0 where: T = mean tumor burden of the drug-treated group on the final day of the study; ΔT = mean tumor burden of the drug-treated group on the final day of the study – mean tumor burden of the drug-treated group on initial day of dosing; Tinitial = mean tumor burden of the drug-treated group on initial day of dosing; C = mean tumor burden of the control group on the final day of the study; and ΔC = mean tumor burden of the control group on the final day of the study – mean tumor burden of the control group on initial day of dosing. If the tumor volume was less than 14 mm^3 for more than 3 consecutive measurements, animals were considered in complete regression (CR)."}, "BCL-2/BAX complex": {"target": "BCL-2/BAX complex (Homo sapiens, UniProt P10415)", "sequence (P10415 whole entry, one chain of several)": "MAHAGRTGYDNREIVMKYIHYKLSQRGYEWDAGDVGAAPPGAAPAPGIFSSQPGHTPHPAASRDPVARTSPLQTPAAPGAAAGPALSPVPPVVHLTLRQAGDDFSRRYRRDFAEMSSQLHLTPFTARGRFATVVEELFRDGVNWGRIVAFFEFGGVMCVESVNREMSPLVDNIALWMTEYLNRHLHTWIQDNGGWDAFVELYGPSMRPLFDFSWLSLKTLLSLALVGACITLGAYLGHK", "assay": "Co-immunoprecipitation in BCL-2-overexpressing HeLa cells", "format": "cell-based", "conditions": "2 h"}, "BCL-XL": {"target": "BCL-XL (Homo sapiens, UniProt Q07817)", "sequence (Q07817 whole entry)": "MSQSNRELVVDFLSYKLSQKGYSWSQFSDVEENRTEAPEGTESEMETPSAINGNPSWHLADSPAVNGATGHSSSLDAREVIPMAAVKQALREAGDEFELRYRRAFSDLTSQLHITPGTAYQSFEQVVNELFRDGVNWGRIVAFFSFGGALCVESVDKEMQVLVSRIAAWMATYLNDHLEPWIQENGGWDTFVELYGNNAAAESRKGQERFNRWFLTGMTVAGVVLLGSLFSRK", "assay": "Isothermal titration calorimetry (ITC), BCL-XL", "format": "binding", "conditions": "25 °C; read-out: ITC_BCL-XL_KD", "protocol": "The protein was dialyzed prior to use in 2 L of 25 mM HEPES, 150 mM NaCl, 5% glycerol (v/v), 0.5% MTG (v/v) at pH 7.4 for 3 hours at room temperature. The protein was dialyzed using a 3.5 K MWCO Slide-A-Lyzer™ cassette. The protein solution was recovered, spin-filtered through a […] frit. The filtered protein was quantified by UV absorbance at 280 nm using an extinction coefficient of 36440 M^-1cm^-1. 500 ml of dialysis buffer was retained (remainder used to rinse out SCHOT bottle) and degassed for a minimum of 30 mins under vacuum with constant stirring. […] The solutions were carefully matched to ensure same solvent and buffer conditions were present in both syringe and cell (this is to minimize heat of dilution effects). The final solution was the dialysis buffer plus 1% DMSO and 0.05% P20. The experiment was performed over 13 injections with stirring at 1000 rpm, gain setting low and at 25° C. Pure water was used in the reference cell. The first injection was 0.5 μl with a duration of 1 second with a gap of 150 seconds until the further 12 injections of 3.05 μl with a duration 6.1 seconds and a 240 second interval between injections. Data was analyzed using the vendor supplied software, PEAQ-ITC Analysis Software. The data model used was the single site model. The data shown is the average of 2 or 3 independent experiments."}, "[3]": {"assay": "Body weight in Toledo-bearing mice", "format": "in vivo", "conditions": "doses up to 300 mg/kg, oral five times a week for 3 weeks", "protocol": "as §1"}, "[4]": {"conditions": "200 mg/kg oral five times a week for 3 weeks"}, "[5]": {"conditions": "300 mg/kg oral five times a week for 3 weeks"}},
  "data": [
    {"smiles": "O=C(c1cc(-c2cc3c(cc2C(=O)N2Cc4ccccc4C[C@H]2CN2CCOCC2)OCO3)n2c1CCCC2)N(c1ccccc1)c1ccc(O)cc1", "note": "[S55746]", "values": [
      {"measurement": "IC50", "setting": "[1]", "result": "> 10000", "unit": "nM"},
      {"measurement": "caspase-3 activity in tumor, times higher than in vehicle-treated animals", "setting": "[2]; 25 mg/kg single oral gavage", "result": "about 11 times"},
      {"measurement": "caspase-3 activity in tumor, times higher than in vehicle-treated animals", "setting": "[2]; 100 mg/kg single oral gavage", "result": "~28", "unit": "times"},
      {"measurement": "% T/C", "setting": "Toledo xenograft; [4]", "result": 13, "unit": "% T/C"},
      {"measurement": "Mean TV change", "setting": "Toledo xenograft; [4]", "result": "239.03 ± 67.97", "unit": "mm3"},
      {"measurement": "% T/C", "setting": "Toledo xenograft; [5]", "result": 2, "unit": "% T/C"},
      {"measurement": "Mean TV change", "setting": "Toledo xenograft; [5]", "result": "33.16 ± 37.38", "unit": "mm3"},
      {"measurement": "effect on BCL-2/BAX complex in BCL-2-overexpressing HeLa cells", "setting": "BCL-2/BAX complex", "result": "affects BCL-2/BAX complex"},
      {"measurement": "Kd", "setting": "BCL-XL", "result": 186, "unit": "nM"},
      {"measurement": "body weight compared to the vehicle control group", "setting": "[3]", "result": "did not significantly differ"}
    ]}
  ]
}
